{"source": "patent US7371551B1", "about": "“Feedback-resistant homoserine transsuccinylases” (priority 2002, dated 2008)", "assay_in_all_cases": "Inhibition of homoserine transsuccinylase activity by SAM (cell extract, DTNB assay at 412 nm)", "format_in_all_cases": "biochemical", "conditions_in_all_cases": "pH 7.5, read-out: Activity (%) in the presence of 1 mM SAM", "key": {"[1]": {"biological_target": "T1, E. coli homoserine transsuccinylase (MetA, SEQ ID No. 2) variant pSLmetAN, Asp101 replaced with Asn (Escherichia coli, UniProt P07623, D101N)", "T1 construct": "made in house; host or cells: E. coli W3110 (ATCC 27325), cell extract", "T1 sequence (P07623 2-309 D101N)": "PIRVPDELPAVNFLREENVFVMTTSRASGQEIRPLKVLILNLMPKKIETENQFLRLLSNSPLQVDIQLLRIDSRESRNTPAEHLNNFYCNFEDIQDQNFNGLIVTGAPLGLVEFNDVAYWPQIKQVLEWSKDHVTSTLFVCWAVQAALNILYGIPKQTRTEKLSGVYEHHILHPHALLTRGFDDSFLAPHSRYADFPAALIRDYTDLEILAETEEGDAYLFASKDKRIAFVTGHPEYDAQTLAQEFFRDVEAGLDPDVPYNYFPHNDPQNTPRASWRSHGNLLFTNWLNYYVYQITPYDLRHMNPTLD", "experimental": "(§1) In order to determine the sensitivity of the activity of the different homoserine transsuccinylases to SAM, it is possible, for example, to carry out an activity test as described in Lee L. W. et al., J. Biol. Chem. 241, 5479-5480 (1966). In this method, the enzyme extract is incubated with homoserine and succinyl-CoA. After various times, a part of the test assay sample is stopped by adding it to a mixture of ethanol, water, and 5,5′-dithiobis(2-nitrobenzoic acid). The absorption is determined photometrically at 412 nm. The described test is suitable, for example, for determining the sensitivity of the homoserine transsuccinylases to SAM.\n(§2) The influence of SAM on the activities of the different homoserine transsuccinylases was determined by quantifying the activity in the presence of different concentrations of SAM (Cl salt, Sigma). The cell extracts were grown and prepared as described in Example 3. The activity test was carried out as described in Lee L. W. et al., J. Biol. Chem. 241, 5479-5480 (1966), with the enzyme extract being incubated with 50 mM potassium phosphate buffer, pH 7.5, 3 mM homoserine and 0.3 mM succinyl-CoA. After various times, 100 μl volumes of test mixture were stopped by adding them in each case to a mixture of 400 μl of ethanol, 400 μl of water and 100 μl of 10 mM 5,5′-dithiobis(2-nitrobenzoic acid). After the resulting mixture had been incubated at room temperature for 5 minutes, the absorption was determined photometrically at 412 nm. After the protein concentration had been determined, the enzyme activity was calculated using the extinction coefficient. The Ki was determined as a measure of the ability of SAM to inhibit the activity."}, "[2]": {"biological_target": "T2, E. coli homoserine transsuccinylase (MetA, SEQ ID No. 2) variant pSLmetA*0, amino acid 294 (Tyr) deleted (Escherichia coli, UniProt P07623, DEL294-294)", "T2 construct": "made in house; host or cells: E. coli W3110 (ATCC 27325), cell extract", "T2 sequence (P07623 other isoform, or with tags, fused parts or gaps DEL294-294)": "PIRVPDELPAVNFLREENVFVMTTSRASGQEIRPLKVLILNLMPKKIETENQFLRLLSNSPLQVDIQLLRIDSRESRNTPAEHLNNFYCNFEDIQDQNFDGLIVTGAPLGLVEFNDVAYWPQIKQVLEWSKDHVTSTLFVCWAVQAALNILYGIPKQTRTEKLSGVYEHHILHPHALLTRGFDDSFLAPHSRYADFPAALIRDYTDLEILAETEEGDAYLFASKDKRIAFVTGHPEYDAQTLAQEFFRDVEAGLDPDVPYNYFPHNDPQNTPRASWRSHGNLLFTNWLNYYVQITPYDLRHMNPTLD", "experimental": "as §1, §2"}, "[3]": {"biological_target": "T3, E. coli homoserine transsuccinylase (MetA, SEQ ID No. 2) variant pSLmetA*A, Tyr294 replaced with Ala (Escherichia coli, UniProt P07623, Y294A)", "T3 construct": "made in house; host or cells: E. coli W3110 (ATCC 27325), cell extract", "T3 sequence (P07623 2-309 Y294A)": "as the sequence (P07623 2-309 D101N) above, with N100D, Y293A counted along it", "experimental": "as §1, §2"}, "[4]": {"biological_target": "T4, E. coli homoserine transsuccinylase (MetA, SEQ ID No. 2) variant pSLmetA*L, Tyr294 replaced with Leu (Escherichia coli, UniProt P07623, Y294L)", "T4 construct": "made in house; host or cells: E. coli W3110 (ATCC 27325), cell extract", "T4 sequence (P07623 2-309 Y294L)": "as the sequence (P07623 2-309 D101N) above, with N100D, Y293L counted along it", "experimental": "as §1, §2"}, "[5]": {"biological_target": "T5, E. coli homoserine transsuccinylase (MetA, SEQ ID No. 2) variant pKP446, Tyr294 replaced with Cys (Escherichia coli, UniProt P07623, Y294C)", "T5 construct": "made in house; host or cells: E. coli W3110 (ATCC 27325), cell extract", "T5 sequence (P07623 2-309 Y294C)": "as the sequence (P07623 2-309 D101N) above, with N100D, Y293C counted along it", "experimental": "as §1, §2"}, "[6]": {"biological_target": "T6, E. coli homoserine transsuccinylase (MetA, SEQ ID No. 2) variant pSLmetA*P, Tyr294 replaced with Pro (Escherichia coli, UniProt P07623, Y294P)", "T6 construct": "made in house; host or cells: E. coli W3110 (ATCC 27325), cell extract", "T6 sequence (P07623 2-309 Y294P)": "as the sequence (P07623 2-309 D101N) above, with N100D, Y293P counted along it", "experimental": "as §1, §2"}, "[7]": {"biological_target": "T7, E. coli homoserine transsuccinylase (MetA, SEQ ID No. 2) variant pSLmetA*Q, Tyr294 replaced with Gln (Escherichia coli, UniProt P07623, Y294Q)", "T7 construct": "made in house; host or cells: E. coli W3110 (ATCC 27325), cell extract", "T7 sequence (P07623 2-309 Y294Q)": "as the sequence (P07623 2-309 D101N) above, with N100D, Y293Q counted along it", "experimental": "as §1, §2"}, "[8]": {"biological_target": "T8, E. coli homoserine transsuccinylase (MetA, SEQ ID No. 2) variant pSLmetA*K, Tyr294 replaced with Lys (Escherichia coli, UniProt P07623, Y294K)", "T8 construct": "made in house; host or cells: E. coli W3110 (ATCC 27325), cell extract", "T8 sequence (P07623 2-309 Y294K)": "as the sequence (P07623 2-309 D101N) above, with N100D, Y293K counted along it", "experimental": "as §1, §2"}}, "data": [{"compound": "C[S+](CC[C@H](N)C(=O)[O-])C[C@H]1O[C@@H](n2cnc3c(N)ncnc32)[C@H](O)[C@@H]1O", "note": "(some centres unmarked) [SAM, S-Adenosylmethionine]", "values": [{"measurement": "activity at 1000 µM", "setting": "[1]", "value": 91, "unit": "%"}, {"measurement": "activity at 1000 µM", "setting": "[2]", "value": 96, "unit": "%"}, {"measurement": "activity at 1000 µM", "setting": "[3]", "value": 95, "unit": "%"}, {"measurement": "activity at 1000 µM", "setting": "[4]", "value": 80, "unit": "%"}, {"measurement": "activity at 1000 µM", "setting": "[5]", "value": 92, "unit": "%"}, {"measurement": "activity at 1000 µM", "setting": "[6]", "value": 98, "unit": "%"}, {"measurement": "activity at 1000 µM", "setting": "[7]", "value": 87, "unit": "%"}, {"measurement": "activity at 1000 µM", "setting": "[8]", "value": 90, "unit": "%"}]}]}
